# Experimental data published in US4757049A, “Process for using endogenous enkephalins and endorphins to stimulate the immune system of patients with aids” (TNI Pharmaceuticals, Inc., priority 1986, dated 1988).
# What was measured:
# L1210 tumor cells = assay: Survival of BDF1 mice inoculated with 1×10^6 L1210 cells, cis-platin with and without methionine-enkephalin; type: in vivo, mouse
# Procedure: In order to test for any synergistic effect of using an endogenous enkephalin with a known chemo-therapeutic agent, a study involving the inoculation of groups of mice with massive doses (1×10^6) of L1210 tumor cells was performed in a manner analogous to the previous examples transferred in RPMI 1640 at pH 7.
# [1] = system: phenylalanyl-t RNA synthetase; conditions: Laidow et al, J.B.C. 255 (1980); cited from earlier work
molecule,measurement,setting,value
"N.N.[Cl][Pt][Cl] [Cis-platin, cis-platin]",Median Day of Death ED50,"L1210 tumor cells; 1×10^6 cells, cis-platin 2 mg/Kg, Met-enkephalin 30 mg/Kg s.c.",10 days
same,"dead/tested, cumulative","L1210 tumor cells; 1×10^6 cells, cis-platin 2 mg/Kg, Met-enkephalin 30 mg/Kg s.c., day 9",3/20
same,Median Day of Death ED50,"L1210 tumor cells; 1×10^6 cells, cis-platin 4 mg/Kg, Met-enkephalin 30 mg/Kg s.c.",10 days
same,"dead/tested, cumulative","L1210 tumor cells; 1×10^6 cells, cis-platin 8 mg/Kg single dose, Met-enkephalin 30 mg/Kg s.c., day 9",2/20
same,Median Day of Death ED50,"L1210 tumor cells; 1×10^6 cells, cis-platin 8 mg/Kg, Met-enkephalin 30 mg/Kg s.c.",12 days
same,"dead/tested, cumulative","L1210 tumor cells; cis-platin 2 mg/Kg, Met-enkephalin 30 mg/Kg s.c., day 10",13/20
same,"dead/tested, cumulative","L1210 tumor cells; cis-platin 2 mg/Kg, Met-enkephalin 30 mg/Kg s.c., day 11",14/20
same,"dead/tested, cumulative","L1210 tumor cells; cis-platin 2 mg/Kg, Met-enkephalin 30 mg/Kg s.c., day 12",15/20
same,"dead/tested, cumulative","L1210 tumor cells; cis-platin 2 mg/Kg, Met-enkephalin 30 mg/Kg s.c., day 13",17/20
same,"dead/tested, cumulative","L1210 tumor cells; cis-platin 2 mg/Kg, Met-enkephalin 30 mg/Kg s.c., day 14",19/20
same,"dead/tested, cumulative","L1210 tumor cells; cis-platin 4 mg/Kg, Met-enkephalin 30 mg/Kg s.c., day 11",10/20
same,"dead/tested, cumulative","L1210 tumor cells; cis-platin 4 mg/Kg, Met-enkephalin 30 mg/Kg s.c., day 12",15/20
same,"dead/tested, cumulative","L1210 tumor cells; cis-platin 4 mg/Kg, Met-enkephalin 30 mg/Kg s.c., day 13",19/20
same,"dead/tested, cumulative","L1210 tumor cells; cis-platin 4 mg/Kg, Met-enkephalin 30 mg/Kg s.c., day 15",20/20
same,"dead/tested, cumulative","L1210 tumor cells; cis-platin 8 mg/Kg, Met-enkephalin 30 mg/Kg s.c., day 12",4/20
same,"dead/tested, cumulative","L1210 tumor cells; cis-platin 8 mg/Kg, Met-enkephalin 30 mg/Kg s.c., day 13",7/20
same,"dead/tested, cumulative","L1210 tumor cells; cis-platin 8 mg/Kg, Met-enkephalin 30 mg/Kg s.c., day 14",12/20
same,"dead/tested, cumulative","L1210 tumor cells; cis-platin 8 mg/Kg, Met-enkephalin 30 mg/Kg s.c., day 15",16/20
same,"dead/tested, cumulative","L1210 tumor cells; cis-platin 8 mg/Kg, Met-enkephalin 30 mg/Kg s.c., day 16",18/20
same,"dead/tested, cumulative","L1210 tumor cells; cis-platin 8 mg/Kg, day 18",19/20
same,"dead/tested, cumulative","L1210 tumor cells; cis-platin 8 mg/Kg, day 20",20/20
beta-endorphin,effect on phenylalanyl-t RNA synthetase,[1],inhibit
